Test results reported in PMC10536063 (ACS Omega, 2023).

Legend:
[1] = test system: MCF-10A (normal breast) cells; assay: MTT cytotoxicity bioassay against normal MCF-10A cells; type: cell-based; settings: for IC50: Homo sapiens, MCF-10A, 48 h, read-out: IC50 ± SD, MCF-10A; for cytotoxicity versus normal MCF-10A cells (in words): MTT
EGFR kinase = EGFR kinase (Homo sapiens, UniProt P00533); assay: EGFR-TK kinase inhibitory assay; type: biochemical
[2] = test system: MCF-7 (breast cancer cells); assay: MTT cytotoxicity bioassay against MCF-7; type: cell-based, human; settings: read-out: IC50 ± SD, MCF-7, 48 h, mean ± SD, n = 3
CDK-2 kinase = CDK-2 kinase (Homo sapiens, UniProt P24941); assay: CDK-2 luminescence kinase inhibitory assay; type: biochemical

EGFR kinase, sequence (P00533 25-1210): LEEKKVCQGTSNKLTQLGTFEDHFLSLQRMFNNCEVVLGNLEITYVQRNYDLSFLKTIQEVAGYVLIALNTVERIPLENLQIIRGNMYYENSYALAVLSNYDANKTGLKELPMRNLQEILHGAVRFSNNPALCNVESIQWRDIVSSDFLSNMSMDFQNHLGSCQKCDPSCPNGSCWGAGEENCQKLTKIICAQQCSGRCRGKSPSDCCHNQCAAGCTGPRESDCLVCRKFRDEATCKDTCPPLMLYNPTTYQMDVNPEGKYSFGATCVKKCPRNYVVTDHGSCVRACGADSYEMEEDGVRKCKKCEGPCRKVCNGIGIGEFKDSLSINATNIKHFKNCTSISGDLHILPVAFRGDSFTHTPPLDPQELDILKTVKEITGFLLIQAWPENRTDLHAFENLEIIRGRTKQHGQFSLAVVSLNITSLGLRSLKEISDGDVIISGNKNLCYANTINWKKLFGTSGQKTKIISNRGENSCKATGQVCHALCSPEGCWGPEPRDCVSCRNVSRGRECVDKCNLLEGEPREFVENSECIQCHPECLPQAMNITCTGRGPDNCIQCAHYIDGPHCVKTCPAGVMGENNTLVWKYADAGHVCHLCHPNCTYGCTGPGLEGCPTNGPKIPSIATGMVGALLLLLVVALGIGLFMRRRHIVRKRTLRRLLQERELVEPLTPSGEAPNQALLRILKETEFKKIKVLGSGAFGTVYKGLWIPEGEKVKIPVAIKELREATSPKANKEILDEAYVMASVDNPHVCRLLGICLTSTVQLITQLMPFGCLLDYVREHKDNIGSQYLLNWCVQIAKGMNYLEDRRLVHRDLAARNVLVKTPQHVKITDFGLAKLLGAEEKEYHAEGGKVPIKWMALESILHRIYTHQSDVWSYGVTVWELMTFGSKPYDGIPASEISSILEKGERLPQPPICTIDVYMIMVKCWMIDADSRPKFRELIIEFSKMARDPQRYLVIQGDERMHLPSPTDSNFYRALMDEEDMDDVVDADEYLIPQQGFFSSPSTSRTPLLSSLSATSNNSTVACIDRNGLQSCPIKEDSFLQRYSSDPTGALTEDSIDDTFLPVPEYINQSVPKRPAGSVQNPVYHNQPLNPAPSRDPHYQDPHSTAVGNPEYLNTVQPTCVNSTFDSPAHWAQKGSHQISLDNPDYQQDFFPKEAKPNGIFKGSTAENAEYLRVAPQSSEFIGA

Structure (SMILES)	IC50 [1] [µM]	cytotoxicity versus normal MCF-10A cells (in words) [1]	IC50 (EGFR kinase) [µM]	IC50 [2] [µM]	IC50 (CDK-2 kinase) [µM]
O=C(c1ccc2ccccc2c1)c1cn(-c2ccccc2)nc1C(=O)CBr [Compound 2, 3-Bromoacetyl-4-(2-naphthoyl)-1-phenyl-1H-pyrazole]	37.5 ± 1.9	–	–	–	–
O=C(c1ccc2ccccc2c1)c1cn(-c2ccccc2)nc1C1=Nn2cnnc2SC1 [Compound 4a, 6-(4-(2-Naphthoyl)-1-phenyl-1H-pyrazol-3-yl)-7H-[1,2,4]triazolo[3,4-b][1,3,4]thiadiazine]	≥ 50	–	–	–	–
O=C(c1ccc2ccccc2c1)c1cn(-c2ccccc2)nc1C1=Nn2c(nnc2-c2ccccc2)SC1 [Compound 4b, 3-Phenyl-6-(4-(2-naphthoyl)-1-phenyl-1H-pyrazol-3-yl)-7H-[1,2,4]triazolo[3,4-b][1,3,4]-thiadiazine]	≥ 50	safe	0.0717 ± 0.0021	3.16 ± 0.29	0.114 ± 0.0029
O=C(c1ccc2ccccc2c1)c1cn(-c2ccccc2)nc1C1=Nn2c(S)nnc2SC1 [Compound 4c, 6-(4-(2-Naphthoyl)-1-phenyl-1H-pyrazol-3-yl)-7H-[1,2,4]triazolo[3,4-b][1,3,4]thiadiazin-3-thiol]	46.7 ± 1.7	safe	0.0896 ± 0.0024	–	0.165 ± 0.00314
O=C(c1ccc2ccccc2c1)c1cn(-c2ccccc2)nc1C1=Nn2c(SCCSc3nnc4n3N=C(c3nn(-c5ccccc5)cc3C(=O)c3ccc5ccccc5c3)CS4)nnc2SC1 [Compound 8a, 1,2-Bis((6-(4-(2-naphthoyl)-1-phenyl-1H-pyrazol-3-yl))-7H-[1,2,4]triazolo[3,4-b][1,3,4]-thiadiazin-3-ylthio)ethane]	38.9 ± 0.89	–	–	–	–
O=C(c1ccc2ccccc2c1)c1cn(-c2ccccc2)nc1C1=Nn2c(SCCCSc3nnc4n3N=C(c3nn(-c5ccccc5)cc3C(=O)c3ccc5ccccc5c3)CS4)nnc2SC1 [Compound 8b, 1,3-Bis((6-(4-(2-naphthoyl)-1-phenyl-1H-pyrazol-3-yl))-7H-[1,2,4]triazolo[3,4-b][1,3,4]-thiadiazin-3-ylthio)propane]	29.6 ± 0.8	–	–	–	–
O=C(c1ccc2ccccc2c1)c1cn(-c2ccccc2)nc1C1=Nn2c(nnc2SCc2ccccc2CSc2nnc3n2N=C(c2nn(-c4ccccc4)cc2C(=O)c2ccc4ccccc4c2)CS3)SC1 [Compound 10, 1,2-Bis((6-(4-(2-naphthoyl)-1-phenyl-1H-pyrazol-3-yl))-7H-[1,2,4]triazolo[3,4-b][1,3,4]-thiadiazin-3-ylthiomethyl)benzene]	31.2 ± 0.9	–	–	–	–
C#Cc1cccc(Nc2ncnc3cc(OCCOC)c(OCCOC)cc23)c1 [Erlotinib, reference compound]	≥ 50	–	–	–	–
